Columns and labels:
MAO-A = molecular target: T1, MAO-A (Homo sapiens, UniProt P21397); test: In vitro MAO-A inhibition assay (fluorometric); assay type: biochemical; conditions: for inhibition at 1000 µM: 10^–3 M; for inhibition at 100 µM: 10^–4 M
T1 sequence (P21397 1-527): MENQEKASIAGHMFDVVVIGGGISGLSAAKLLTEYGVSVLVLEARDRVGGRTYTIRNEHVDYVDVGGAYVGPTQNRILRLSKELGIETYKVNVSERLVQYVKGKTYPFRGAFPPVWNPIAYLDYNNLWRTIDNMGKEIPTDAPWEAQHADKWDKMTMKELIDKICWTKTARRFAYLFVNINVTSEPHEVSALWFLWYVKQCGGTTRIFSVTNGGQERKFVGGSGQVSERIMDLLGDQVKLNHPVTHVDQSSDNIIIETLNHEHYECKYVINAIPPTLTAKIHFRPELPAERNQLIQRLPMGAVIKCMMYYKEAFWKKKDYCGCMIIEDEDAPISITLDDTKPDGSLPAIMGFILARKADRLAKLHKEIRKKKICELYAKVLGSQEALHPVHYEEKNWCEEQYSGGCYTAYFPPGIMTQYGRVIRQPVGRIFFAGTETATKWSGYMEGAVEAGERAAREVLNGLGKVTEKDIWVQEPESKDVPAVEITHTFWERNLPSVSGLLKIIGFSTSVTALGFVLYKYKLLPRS

MAO-B = molecular target: T2, MAO-B (Homo sapiens, UniProt P27338); test: In vitro MAO-B inhibition assay (fluorometric); assay type: biochemical; conditions: for inhibition at 1000 µM: 10^–3 M; for inhibition at 100 µM: 10^–4 M
T2 sequence (P27338 1-520): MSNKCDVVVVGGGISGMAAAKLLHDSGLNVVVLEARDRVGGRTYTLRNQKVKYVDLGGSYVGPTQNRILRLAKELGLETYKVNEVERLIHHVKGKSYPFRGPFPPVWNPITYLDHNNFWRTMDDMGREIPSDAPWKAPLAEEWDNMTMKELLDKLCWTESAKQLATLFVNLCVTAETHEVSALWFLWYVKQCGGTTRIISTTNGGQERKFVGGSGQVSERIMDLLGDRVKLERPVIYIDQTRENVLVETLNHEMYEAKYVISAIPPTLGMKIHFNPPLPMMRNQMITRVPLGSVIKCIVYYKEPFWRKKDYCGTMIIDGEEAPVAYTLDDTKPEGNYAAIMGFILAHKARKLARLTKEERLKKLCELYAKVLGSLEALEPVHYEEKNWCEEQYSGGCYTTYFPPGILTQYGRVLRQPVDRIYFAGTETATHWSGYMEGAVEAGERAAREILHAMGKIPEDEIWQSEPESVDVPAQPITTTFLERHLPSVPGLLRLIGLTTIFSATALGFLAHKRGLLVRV

BChE = BChE (Homo sapiens, UniProt P06276); test: biochemical; conditions: for inhibition at 1000 µM: 10^–3 M; for inhibition at 100 µM: 10^–4 M
Protocol: (§1) According to the modified Ellman approach outlined in our team’s earlier work, the AChE and BChE inhibitory activities of the obtained compounds were evaluated.[18]−[21]

AChE = AChE (Homo sapiens, UniProt P22303); test: biochemical; conditions: for inhibition at 1000 µM: 10^–3 M; for inhibition at 100 µM: 10^–4 M; for inhibition at 10 µM: 10^–5 M; for inhibition at 1 µM: 10^–6 M; for inhibition at 0.1 µM: 10^–7 M; for inhibition at 0.01 µM: 10^–8 M; for inhibition at 0.001 µM: 10^–9 M
Protocol: as §1

Cytotoxicity test (MTT) = assay type: cell-based; conditions: NIH/3T3 mouse embryonic fibroblast cells (ATCC CRL-1658), NIH/3T3 mouse fibroblast healthy cell line
Protocol: The NIH/3T3 cells were incubated according to the manufacturer’s recommendations. In 96-well plates, NIH/3T3 cells were seeded at a density of 1 × 10^4 cells per well. The MTT test was conducted in line with the previously mentioned standards.[19],[22],[23],[28],[30]

Sequence of AChE (P22303 32-614): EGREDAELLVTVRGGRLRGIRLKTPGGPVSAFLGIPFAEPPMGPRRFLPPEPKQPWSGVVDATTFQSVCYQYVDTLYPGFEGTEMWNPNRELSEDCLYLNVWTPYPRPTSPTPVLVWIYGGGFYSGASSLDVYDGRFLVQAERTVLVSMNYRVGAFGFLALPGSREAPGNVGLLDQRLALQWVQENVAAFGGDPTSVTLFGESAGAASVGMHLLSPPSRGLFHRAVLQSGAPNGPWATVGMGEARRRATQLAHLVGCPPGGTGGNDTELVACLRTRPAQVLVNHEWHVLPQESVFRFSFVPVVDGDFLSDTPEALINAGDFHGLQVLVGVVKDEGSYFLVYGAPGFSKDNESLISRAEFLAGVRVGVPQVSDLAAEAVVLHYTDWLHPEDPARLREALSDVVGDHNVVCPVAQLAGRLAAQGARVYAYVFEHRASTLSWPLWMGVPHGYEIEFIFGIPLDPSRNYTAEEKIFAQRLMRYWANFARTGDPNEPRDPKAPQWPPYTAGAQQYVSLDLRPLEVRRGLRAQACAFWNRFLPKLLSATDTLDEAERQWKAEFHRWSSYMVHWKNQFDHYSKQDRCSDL
Sequence of BChE (P06276 29-602): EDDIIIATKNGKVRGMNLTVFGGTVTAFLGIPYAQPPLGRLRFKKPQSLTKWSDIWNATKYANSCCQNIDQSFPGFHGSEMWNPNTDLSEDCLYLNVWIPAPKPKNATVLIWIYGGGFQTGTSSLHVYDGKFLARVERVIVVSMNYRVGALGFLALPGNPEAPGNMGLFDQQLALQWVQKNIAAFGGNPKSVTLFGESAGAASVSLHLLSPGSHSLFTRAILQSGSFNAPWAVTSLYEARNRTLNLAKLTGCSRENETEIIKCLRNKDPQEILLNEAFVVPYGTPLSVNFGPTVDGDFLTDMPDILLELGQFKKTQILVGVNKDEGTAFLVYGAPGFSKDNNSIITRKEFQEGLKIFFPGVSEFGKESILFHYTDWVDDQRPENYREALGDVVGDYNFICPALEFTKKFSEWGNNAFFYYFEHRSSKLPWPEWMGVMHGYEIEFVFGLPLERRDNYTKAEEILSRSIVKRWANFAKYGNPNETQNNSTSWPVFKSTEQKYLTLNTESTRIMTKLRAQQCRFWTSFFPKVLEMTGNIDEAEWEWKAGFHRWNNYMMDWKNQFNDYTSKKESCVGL

SMILES | inhibition at 1000 µM (MAO-A) [%] | inhibition at 100 µM (MAO-A) [%] | inhibition at 1000 µM (MAO-B) [%] | inhibition at 100 µM (MAO-B) [%] | inhibition at 1000 µM (BChE) [%] | inhibition at 100 µM (BChE) [%] | inhibition at 1000 µM (AChE) [%] | inhibition at 100 µM (AChE) [%] | IC50 (AChE) [µM] | inhibition at 10 µM (AChE) [%] | inhibition at 1 µM (AChE) [%] | inhibition at 0.1 µM (AChE) [%] | inhibition at 0.01 µM (AChE) [%] | inhibition at 0.001 µM (AChE) [%] | IC50 (Cytotoxicity test (MTT)) [µM]
C#CCN1CCN(CC(=O)Nc2ccc(/C=C3\Cc4cc(OC)c(OC)cc4C3=O)cc2)CC1 [D12] | 95.76 ± 0.49 | 45.1 ± 0.466 | 96.2 ± 1.34 | 49 ± 0.623 | 98.4 ± 1.79 | 48.8 ± 0.529 | 96.5 ± 2.7 | 49.7 ± 0.988 |  |  |  |  |  |  | 
COCCN1CCN(CC(=O)Nc2ccc(/C=C3\Cc4cc(OC)ccc4C3=O)cc2)CC1 [D13] | 82.7 ± 1.21 | 35.5 ± 0.623 | 84.6 ± 1.11 | 44.6 ± 0.557 | 90.1 ± 1.46 | 23.9 ± 0.934 | 71.2 ± 1.07 | 43 ± 0.998 |  |  |  |  |  |  | 
COCCN1CCN(CC(=O)Nc2ccc(/C=C3\Cc4ccc(OC)cc4C3=O)cc2)CC1 [D14] | 48.5 ± 0.749 | 27.95 ± 0.243 | 69 ± 0.847 | 39.3 ± 0.652 | 73.7 ± 1.51 | 33 ± 0.721 | 44.2 ± 0.999 | 36.3 ± 0.664 |  |  |  |  |  |  | 
COCCN1CCN(CC(=O)Nc2ccc(/C=C3\Cc4cc(OC)c(OC)cc4C3=O)cc2)CC1 [D15] | 70.52 ± 0.536 | 20.3 ± 0.412 | 80.2 ± 1.46 | 40.1 ± 0.508 | 94.6 ± 1.6 | 43.5 ± 0.966 | 91.6 ± 2.56 | 43.4 ± 0.877 |  |  |  |  |  |  | 
COc1ccc2c(c1)C/C(=C\c1ccc(NC(=O)CN3CCN(CCO)CC3)cc1)C2=O [D16] | 65.8 ± 0.779 | 22 ± 0.233 | 75.6 ± 1.1 | 42.9 ± 0.629 | 87.63 ± 0.618 | 23.6 ± 0.448 | 88 ± 1.09 | 42.6 ± 1.85 |  |  |  |  |  |  | 
COc1ccc2c(c1)C(=O)/C(=C/c1ccc(NC(=O)CN3CCN(CCO)CC3)cc1)C2 [D17] | 82.45 ± 0.529 | 34.4 ± 0.508 | 84.6 ± 1.04 | 45.4 ± 0.669 | 75.532 ± 0.061 | 21.1 ± 0.804 | 73.7 ± 1.06 | 48.1 ± 0.669 |  |  |  |  |  |  | 
COc1cc2c(cc1OC)C(=O)/C(=C/c1ccc(NC(=O)CN3CCN(CCO)CC3)cc1)C2 [D18] | 63.8 ± 0.683 | 28.39 ± 0.097 | 75.6 ± 1.2 | 47.34 ± 0.457 | 99.21 ± 0.887 | 41.8 ± 0.766 | 94.7 ± 1.97 | 45.3 ± 1.01 |  |  |  |  |  |  | 
COc1ccc2c(c1)C/C(=C\c1ccc(NC(=O)CN3CCN(CCCN(C)C)CC3)cc1)C2=O [D25] | 80.38 ± 0.646 | 43.1 ± 0.646 | 79 ± 1.31 | 40.1 ± 0.63 | 95.7 ± 2.13 | 32 ± 0.667 | 92.6 ± 1.62 | 88.7 ± 1.19 | 0.183 ± 0.0074 | 71.1 ± 1.01 | 58.9 ± 0.952 | 43.2 ± 0.548 | 35.3 ± 0.417 | 23.4 ± 0.389 | 13.8 ± 0.369
COc1ccc2c(c1)C(=O)/C(=C/c1ccc(NC(=O)CN3CCN(CCCN(C)C)CC3)cc1)C2 [D26] | 95.12 ± 0.828 | 44.3 ± 0.914 | 94.3 ± 0.997 | 41.3 ± 0.874 | 56.2 ± 0.826 | 31.1 ± 0.415 | 93.3 ± 1.5 | 80.5 ± 1.21 | 0.176 ± 0.0062 | 78.1 ± 1.02 | 60.6 ± 0.974 | 40.3 ± 0.598 | 35.6 ± 0.758 | 24.5 ± 0.622 | 21.8 ± 0.556
C#CCN(C)CC(=O)Nc1ccc(/C=C2\Cc3cc(OC)c(OC)cc3C2=O)cc1 [D33] | 84.3 ± 1.29 | 29.9 ± 0.552 | 82.1 ± 1.19 | 39.3 ± 0.665 | 99 ± 1.75 | 46.6 ± 0.845 | 52.4 ± 1.24 | 32 ± 0.462 |  |  |  |  |  |  | 
CCN(CC)CCN(CC)CC(=O)Nc1ccc(/C=C2\Cc3cc(OC)c(OC)cc3C2=O)cc1 [D42] | 97.71 ± 0.411 | 40.2 ± 0.736 | 95.2 ± 1.62 | 40.2 ± 0.824 | 99.4 ± 1.29 | 45.91 ± 0.206 | 99.8 ± 2.01 | 44.2 ± 0.71 |  |  |  |  |  |  | 

From publication PMC9774391 (ACS Omega, 2022)
